# According to ChEMBL document CHEMBL5096160, “Targeting SHP2 as a therapeutic strategy for inflammatory diseases” (Eur J Med Chem, 2021):
# What was measured:
# [1] = molecular target: T1, Tyrosine-protein phosphatase non-receptor type 11 (Homo sapiens, UniProt Q06124); experiment: Inhibition of N-terminal hexaHis-tagged catalytic domain of human SHP2 (248 to 527 residues) expressed as Escherichia coli Rosetta (DE3) using DiFMUP as substrate preincubated for 1 hr followed by substrate addition by fluorescence based analysis
# T1 sequence (Q06124 whole entry): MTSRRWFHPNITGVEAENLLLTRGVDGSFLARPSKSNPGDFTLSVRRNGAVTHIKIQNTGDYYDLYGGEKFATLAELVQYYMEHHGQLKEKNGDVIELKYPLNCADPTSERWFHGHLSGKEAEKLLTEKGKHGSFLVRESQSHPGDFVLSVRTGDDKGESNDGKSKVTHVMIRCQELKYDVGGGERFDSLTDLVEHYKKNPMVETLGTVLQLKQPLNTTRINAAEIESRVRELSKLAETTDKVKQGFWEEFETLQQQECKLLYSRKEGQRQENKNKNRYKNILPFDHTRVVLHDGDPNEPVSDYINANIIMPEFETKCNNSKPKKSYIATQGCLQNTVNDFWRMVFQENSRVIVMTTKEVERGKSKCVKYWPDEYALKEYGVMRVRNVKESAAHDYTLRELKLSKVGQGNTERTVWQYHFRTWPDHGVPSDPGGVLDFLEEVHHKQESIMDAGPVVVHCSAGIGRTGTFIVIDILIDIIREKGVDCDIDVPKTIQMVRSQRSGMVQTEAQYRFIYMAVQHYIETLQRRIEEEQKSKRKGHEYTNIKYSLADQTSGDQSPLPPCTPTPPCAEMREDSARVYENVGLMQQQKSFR
# [2] = molecular target: T1, Tyrosine-protein phosphatase non-receptor type 11; experiment: Inhibition of recombinant human GST-tagged SHP2 expressed in Escherichia coli BL21 incubated for 30 mins by DiFMUP fluorescence assay
# [3] = test system: A549; experiment: Antiproliferative activity against human A549 cells assessed as inhibition of cell growth measured after 72 hrs by CCK-8 assay; format: functional, cell-based; details: A549, 72 h
# [4] = test system: SW1463; experiment: Cytotoxicity against human SW1463 cells assessed as inhibition of cell growth incubated for 120 hrs by MTT assay; format: functional, cell-based; details: SW1463, 120 h
# [5] = molecular target: T1, Tyrosine-protein phosphatase non-receptor type 11; experiment: Inhibition of N-terminal 6His-tagged full-length H2N-VE(pY)LDLDLD(PEG8)RVD(pY)VVVDQQ-amide-activated SHP2 (247 to 529 residues) (unknown origin) expressed in Escherichia coli BL21 (DE3) using DiFMUP as substrate preincubated for 10 to 30 mins with activating peptide prior to compound addition for 30 mins followed by substrate addition and measured for 6 mins by fluorescence based assay
# [6] = molecular target: T2, Tyrosine-protein phosphatase non-receptor type 11 (Homo sapiens) (UniProt Q06124); experiment: Inhibition of SHP2 in human LS180 cells; format: cell-based
# T2 sequence (whole entry): T1 sequence (Q06124 whole entry)
# [7] = molecular target: T2, Tyrosine-protein phosphatase non-receptor type 11 (Homo sapiens); experiment: Inhibition of recombinant SHP2 (unknown origin)
# [8] = molecular target: T1, Tyrosine-protein phosphatase non-receptor type 11; experiment: Inhibition of human SHP2 catalytic domain expressed in Escherichia coli using p-nitrophenyl phosphate as substrate by spectrophotometric method
# [9] = molecular target: Tyrosine-protein phosphatase non-receptor type 6 (Homo sapiens) (UniProt P29350); experiment: Inhibition of SHP1 (unknown origin) using EFpYAEVGRSPPDPAK incubated for 0.5 hrs by malachite green reagent assay
# Tyrosine-protein phosphatase non-receptor type 6 (Homo sapiens), sequence (P29350 whole entry): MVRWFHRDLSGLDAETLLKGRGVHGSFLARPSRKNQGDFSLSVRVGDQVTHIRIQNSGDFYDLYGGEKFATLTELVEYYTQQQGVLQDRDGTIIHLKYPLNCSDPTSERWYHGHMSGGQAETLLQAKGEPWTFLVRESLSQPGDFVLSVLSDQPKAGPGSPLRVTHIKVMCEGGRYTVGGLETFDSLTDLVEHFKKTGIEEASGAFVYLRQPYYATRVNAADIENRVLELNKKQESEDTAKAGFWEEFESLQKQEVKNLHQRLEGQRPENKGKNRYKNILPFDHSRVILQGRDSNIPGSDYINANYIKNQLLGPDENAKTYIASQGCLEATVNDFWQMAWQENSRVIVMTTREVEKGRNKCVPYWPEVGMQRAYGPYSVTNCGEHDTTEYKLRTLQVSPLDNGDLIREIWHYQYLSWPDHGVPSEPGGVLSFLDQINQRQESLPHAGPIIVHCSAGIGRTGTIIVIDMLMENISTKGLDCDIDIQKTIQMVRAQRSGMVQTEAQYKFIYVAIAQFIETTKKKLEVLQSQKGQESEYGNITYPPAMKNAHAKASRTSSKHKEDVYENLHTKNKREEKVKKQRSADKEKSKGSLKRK
# [10] = test system: BaF3; experiment: Cytotoxicity against mouse BaF3 cells assessed as inhibition of cell proliferation incubated for 48 hrs by MTT assay; format: functional, cell-based; details: BaF3, 48 h
# [11] = molecular target: T1, Tyrosine-protein phosphatase non-receptor type 11; experiment: Inhibition of SHP2 (unknown origin) using EFpYAEVGRSPPDPAK incubated for 0.5 hrs by malachite green reagent based assay
# [12] = molecular target: Tyrosine-protein phosphatase non-receptor type 11 (Mus musculus, UniProt P35235); experiment: Inhibition of SHP2 in mouse EMT6 cells harboring SOS1 mutation; format: cell-based
# Tyrosine-protein phosphatase non-receptor type 11 (Mus musculus, UniProt P35235), sequence (P35235 2-593 limits assumed, stated change not applied): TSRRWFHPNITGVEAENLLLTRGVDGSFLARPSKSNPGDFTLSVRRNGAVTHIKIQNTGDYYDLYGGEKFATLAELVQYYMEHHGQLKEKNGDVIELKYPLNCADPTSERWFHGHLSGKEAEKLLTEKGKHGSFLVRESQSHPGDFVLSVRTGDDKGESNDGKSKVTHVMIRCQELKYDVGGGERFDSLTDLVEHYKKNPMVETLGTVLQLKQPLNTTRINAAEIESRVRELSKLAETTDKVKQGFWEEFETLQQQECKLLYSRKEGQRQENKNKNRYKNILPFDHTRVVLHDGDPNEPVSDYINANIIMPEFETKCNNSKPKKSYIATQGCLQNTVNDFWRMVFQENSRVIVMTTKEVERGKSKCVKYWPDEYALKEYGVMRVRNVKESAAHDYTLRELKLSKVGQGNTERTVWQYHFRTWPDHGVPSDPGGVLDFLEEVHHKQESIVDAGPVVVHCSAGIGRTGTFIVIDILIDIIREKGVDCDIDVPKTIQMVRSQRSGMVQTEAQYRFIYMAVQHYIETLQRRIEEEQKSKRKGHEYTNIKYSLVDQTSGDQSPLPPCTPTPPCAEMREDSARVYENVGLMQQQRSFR
# [13] = molecular target: T1, Tyrosine-protein phosphatase non-receptor type 11; experiment: Inhibition of GST-tagged SHP2 (unknown origin) using 8-difluoro-4-methylumbelliferyl phosphate as a substrate measured after 30 mins by fluorescence based analysis
# [14] = molecular target: T1, Tyrosine-protein phosphatase non-receptor type 11; experiment: Inhibition of human recombinant SHP2 expressed in Escherichia coli using p-nitrophenyl phosphate as substrate preincubated for 2 mins followed by substrate addition by microplate spectrophotometer analysis
# [15] = Cytotoxicity against human LN-444 cells assessed as reduction in cell viability incubated for 72 hrs by WST-1 assay; format: functional, cell-based; details: LN-444, 72 h
# [16] = test system: Capan-2; experiment: Cytotoxicity against human Capan-2 cells harbouring K-ras mutant assessed as reduction in cell viability incubated for 144 hrs; format: functional, cell-based; details: Capan-2, 144 h
smiles,measurement,setting,value
O=C1/C(=N/Nc2ccc(S(=O)(=O)O)cc2)C(c2ccc([N+](=O)[O-])cc2)=NN1c1ccc([N+](=O)[O-])cc1,IC50,[1],71 nM
CC(=O)O[C@H]1CC[C@]2(C)c3c(O)c4c(c(O)c3C(=O)CC2C1(C)C)C[C@H](C)O4 (some centres undefined),IC50,[2],8790 nM
same,IC50,[3],10800 nM
N[C@@H]1COCC12CCN(c1cnc3c(Sc4cccc(Cl)c4Cl)n[nH]c3n1)CC2,IC50,[4],590 nM
same,IC50,[5],2.1 nM
same,MIC,[6],10 µM
O=C(O)c1ccccc1-c1ccc(/C=c2/sc3nc4cc(Br)cnc4n3c2=O)o1,IC5,[7],1.1 µM
CCCCCCCCCCCC(=O)C1=C2C3=COC(C)=CC3=CC(=O)[C@]2(C)OC1=O,IC50,[8],800 nM
NCC1CCN(c2ncc(-c3cccc(Cl)c3Cl)cc2CO)CC1,IC5,[9],100 µM
same,IC50,[10],2350 nM
same,IC50,[11],1360 nM
Cc1nc(N2CCC3(CC2)CO[C@@H](C)[C@H]3N)c(CO)nc1-c1cccc(Cl)c1Cl,IC50,[12],7 nM
C/C(=C\[C@H](O)C[C@@H](C)[C@H]1CC[C@@]2(C)[C@@H]3CC[C@H]4C(C)(C)[C@@H](O)CC[C@@]45C[C@@]35CC[C@]12C)C(=O)O,IC50,[13],19000 nM
CCOC(=O)c1sc(-c2ccc(OC)cc2)nc1COc1ccc(Cl)cc1,IC50,[14],990 nM
CC1(N)CCN(c2cnc(-c3cccc(Cl)c3Cl)c(N)n2)CC1,IC50,[15],38000 nM
same,IC50,[16],15700 nM
same,IC50,[10],19900 nM
CCOC(=O)c1sc(-c2ccc([N+](=O)[O-])cc2)nc1COc1ccc(Cl)cc1,IC50,[14],4300 nM
CCCCCCCCCC[C@@H](C)C(=O)C1=C2C3=COC(C)=CC3=CC(=O)[C@]2(C)OC1=O,IC50,[8],700 nM
